Source: patent publication US6294674A, “Dibenzofuran sulfonamide matrix metalloproteinase inhibitors” (priority 1999, dated 2001)
Where two headings read alike, the source gives them in different places.

Key:
[1] = target: T1, MMP01 (Homo sapiens, UniProt P03956); test: Thiopeptolide assay, MMP01; type: biochemical
T1 construct: purchased Washington University School of Medicine, St. Louis, Mo
T1 sequence (P03956 100-469): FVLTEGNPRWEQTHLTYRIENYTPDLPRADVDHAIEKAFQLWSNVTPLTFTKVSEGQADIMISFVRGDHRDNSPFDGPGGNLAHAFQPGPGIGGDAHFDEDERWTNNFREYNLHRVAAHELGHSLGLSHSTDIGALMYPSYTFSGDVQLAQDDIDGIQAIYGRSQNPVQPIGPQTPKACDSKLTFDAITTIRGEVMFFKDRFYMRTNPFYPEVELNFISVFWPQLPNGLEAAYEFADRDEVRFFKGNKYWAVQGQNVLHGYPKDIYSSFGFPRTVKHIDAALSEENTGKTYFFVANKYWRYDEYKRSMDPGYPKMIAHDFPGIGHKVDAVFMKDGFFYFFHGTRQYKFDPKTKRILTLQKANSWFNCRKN

[2] = target: gelatinase A catalytic domain (MMP02); test: Thiopeptolide assay, gelatinase A catalytic domain (GCD, MMP02); type: biochemical
[3] = target: T2, stromelysin-1 catalytic domain (MMP03) (Homo sapiens, UniProt P08254); test: Thiopeptolide assay, stromelysin-1 catalytic domain (SCD, MMP03); type: biochemical
T2 construct: SCD (stromelysin-1 catalytic domain); made in house; host or cells: Escherichia coli

[4] = target: T3, MMP07 (Homo sapiens, UniProt P09237); test: Thiopeptolide assay, MMP07; type: biochemical
T3 construct: made in house; host or cells: Escherichia coli
T3 sequence (P09237 95-267): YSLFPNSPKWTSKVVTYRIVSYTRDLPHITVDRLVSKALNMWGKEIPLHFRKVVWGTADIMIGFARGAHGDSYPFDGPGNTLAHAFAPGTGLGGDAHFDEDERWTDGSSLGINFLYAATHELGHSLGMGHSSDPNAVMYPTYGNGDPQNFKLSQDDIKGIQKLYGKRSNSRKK

[5] = test system: MMP13; test: Thiopeptolide assay, MMP13; type: biochemical, human; conditions: Table 1
Description: MMP01, MMP07, MMP09, and MMP13 activity was assayed in a method similar to MMP02 and MMP03 (SCD and GCD). MMP01 and MMP09 can be obtained from Washington University School of Medicine, St. Louis, Mo. MMP07 can be obtained in accordance with the known procedure set forth by Ye QZ, Johnson L. L., and Baragi V., "Gene Syntheses and Expression in E. coli for PUMP, a Human Matrix Metalloproteinase" Biochem. and Biophys. […] MMP 13 can be obtained in accordance with the known procedure set forth by Freije J. M. P., et al., "Molecular Cloning and Expression of Collegenase-3, a Novel Human Matrix Metalloproteinase Produced by Breast Carcinomas" J. Bio.
Hydrolysis of the thiopeptolide substrate Ac-Pro-Leu-Gly-thioester-Leu-Leu-Gly-OEt (Bachem) is used as the primary screen to determine IC50 values for MMP inhibitors. A 100 μL reaction contains 1 mM 5,5'-dithiobis(2-nitrobenzoic acid) (DTNB), 100 μM substrate, 0.1% Brij, enzyme, and inhibitor in the appropriate reaction buffer. Activated full-length enzymes are assayed at 5 nM, Stromelysin Catalytic Domain (SCD) at 10 nM, and Gelatinase A Catalytic Domain (GaCD) at 1 nM. Inhibitors are screened from 100 μM to 1 nM. Full-length enzymes are assayed in 50 mM HEPES, 10 mM CaCl2, pH 7.0; SCD in 50 mM MES, 10 mM CaCl2, pH 6.0; and GaCD in 50 mM MOPS, 10 mM CaCl2, 10 μM ZnCl2, pH 7.0.

[6] = test system: human ovarian carcinoma xenografts; conditions: Davies, et al., Cancer Res., 1993; cited from earlier work
[7] = target: T4, MMP09 (Homo sapiens, UniProt P14780); test: Thiopeptolide assay, MMP09; type: biochemical; conditions: Table 1
T4 construct: purchased Washington University School of Medicine, St. Louis, Mo
Description: IC50 values were determined using a thiopeptolide substrate, Ac-Pro-Leu-Gly-thioester-Leu-Leu-Gly-OEt (Ye Q.-Z., Johnson L. L., Hupe D. J., and Baragi V., "Purification and Characterization of the Human Stromelysin Catalytic Domain Expressed in Escherichia coli," Biochemistry, 1992;31:11231-11235). MMP01, MMP07, MMP09, and MMP13 activity was assayed in a method similar to MMP02 and MMP03 (SCD and GCD). MMP01 and MMP09 can be obtained from Washington University School of Medicine, St. Louis, Mo. MMP07 can be obtained in accordance with the known procedure set forth by Ye QZ, Johnson L. L., and Baragi V., "Gene Syntheses and Expression in E. coli for PUMP, a Human Matrix Metalloproteinase" Biochem. and Biophys. Res. Comm., 1992; 186:143-149. MMP 13 can be obtained in accordance with the known procedure set forth by Freije J. M. P., et al., "Molecular Cloning and Expression of Collegenase-3, a Novel Human Matrix Metalloproteinase Produced by Breast Carcinomas" J. Bio. Chem., 1994;269:16766-6773.
Hydrolysis of the thiopeptolide substrate Ac-Pro-Leu-Gly-thioester-Leu-Leu-Gly-OEt (Bachem) is used as the primary screen to determine IC50 values for MMP inhibitors. […] The change in absorbance at 405 riM is monitored on a ThermoMax microplate reader at room temperature continuously for 20 minutes.

[8] = MMP Inhibitor Bioassay (plasma levels after gavage); type: in vivo; conditions: rat, po, 50 mg/kg by gavage
Description: Animals are dosed by gavage with either vehicle or compound at 2, 10, or 50 mg/kg. Blood samples are collected from 3-4 animals from each dosing group at 1, 2, 4, 6, and 24 hour postdose, centrifuged, and the plasma immediately frozen at -20° C. Plasma protein is precipitated with an equal volume of acetonitrile and separated by centrifugation at room temperature. The supernate is evaporated to dryness and reconstituted to the original plasma volume with 50 mM Tris, pH 7.6. Ten-fold serial dilutions of the reconstituted plasma samples are prepared in 50 mM Tris, pH 7.6 for dose response assays using the appropriate thiopeptolide assay. The concentration of plasma which yields 50% inhibition of enzyme is determined and used to calculate the inhibitor plasma level from the known IC50 value. […] All control samples are subjected to acetonitrile precipitation and analyzed with the thiopeptolide assay.

[9] = test system: MMP-13CD; test: Thiopeptolide assay, MMP-13CD; type: biochemical, human; conditions: Tables 2, 3, 5, 7
[10] = test system: experimental allergic encephalomyelitis (EAE); conditions: Gijbels, et al., J. Clin. Invest., 1994; cited from earlier work
[11] = test system: bovine nasal and pig articular cartilage; conditions: Andrews et al. 1992; Ellis et al. 1994; cited from earlier work
[12] = Table 1, GCD, read-out: IC50 MMP02
[13] = Table 1, SCD, read-out: IC50 MMP03
[14] = Tables 2, 3, 5, 7, read-out: IC50 MMP1
[15] = Tables 2, 3, 5, 7, read-out: IC50 MMP-2CD
[16] = Tables 2, 3, 5, 7, read-out: IC50 MMP 3CD
[17] = Tables 2, 3, 5, 7, read-out: IC50 MMP-7

T2 sequence (P08254 100-272 limits assumed): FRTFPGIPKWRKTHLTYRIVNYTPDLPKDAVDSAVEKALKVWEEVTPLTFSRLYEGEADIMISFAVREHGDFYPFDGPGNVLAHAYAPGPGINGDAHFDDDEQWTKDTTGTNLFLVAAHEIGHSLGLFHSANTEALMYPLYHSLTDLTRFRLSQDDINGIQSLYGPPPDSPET
T4 sequence (P14780 107-707 limits assumed): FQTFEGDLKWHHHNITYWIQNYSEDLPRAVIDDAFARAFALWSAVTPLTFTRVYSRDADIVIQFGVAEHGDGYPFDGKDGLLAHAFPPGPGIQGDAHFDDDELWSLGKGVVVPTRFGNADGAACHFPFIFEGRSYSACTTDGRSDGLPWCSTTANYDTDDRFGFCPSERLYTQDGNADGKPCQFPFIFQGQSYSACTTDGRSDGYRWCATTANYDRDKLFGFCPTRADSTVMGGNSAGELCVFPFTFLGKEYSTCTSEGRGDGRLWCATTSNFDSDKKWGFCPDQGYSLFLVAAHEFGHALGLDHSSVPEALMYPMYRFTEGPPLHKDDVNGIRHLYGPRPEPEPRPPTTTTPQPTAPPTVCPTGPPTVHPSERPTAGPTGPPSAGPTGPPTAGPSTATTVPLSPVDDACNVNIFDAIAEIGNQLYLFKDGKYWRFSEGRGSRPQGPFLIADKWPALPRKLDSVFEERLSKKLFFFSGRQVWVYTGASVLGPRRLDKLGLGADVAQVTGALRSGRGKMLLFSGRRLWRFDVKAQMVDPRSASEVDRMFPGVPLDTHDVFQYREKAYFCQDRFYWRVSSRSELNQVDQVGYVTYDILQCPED

| IC50 ([1]; Table 1, read-out: IC50 MMP01) | IC50 [2, 12] | IC50 [3, 13] | IC50 ([4]; Table 1, read-out: IC50 MMP07) | IC50 [5] | IC50 [1, 14] | IC50 [2, 15] | IC50 [3, 16] | IC50 [4, 17] | IC50 [9] | Compound | further results |
| --- | --- | --- | --- | --- | --- | --- | --- | --- | --- | --- | --- |
|  |  |  |  |  |  |  |  |  |  | CNC(=O)[C@H](Cc1ccccc1)NC(=O)[C@H](CC(C)C)[C@H](CSc1cccs1)C(=O)NO [BB-94] | survival [6]: prolonged the survival of mice; tumor burden [6]: decreased the tumor burden |
| 47 µM | 0.27 µM |  |  |  |  |  |  |  |  | O=C(O)[C@H](CCc1ccccc1)NS(=O)(=O)c1ccc2oc3ccccc3c2c1 [Example 1, (S)-2-(Dibenzofuran-2-sulfonylamino)-4-phenyl-butyric acid] | IC50 [7]: 67 µM; concentration at 24 h ([8]; 24 hours, read-out: plasma levels at 24 hours postdose): 29 µM; Cmax ([8]; at 1 to 4 hours, read-out: peak plasma levels): 71 µM; Tmax ([8]; read-out: time of peak plasma levels): 1 to 4 h |
| 39 µM | 0.076 µM | 0.325 µM | 6.55 µM | 0.28 µM |  |  |  |  |  | O=C(CC[C@H](NS(=O)(=O)c1ccc2oc3ccccc3c2c1)C(=O)O)NCCc1ccccc1 [Example 5, 2-(Dibenzofuran-2-sulfonylamino)-4-phenethylcarbamoyl-butyric acid] |  |
| 100 µM | 2.4 µM | 3.7 µM | 87 µM | 7.1 µM |  |  |  |  |  | CCCc1ccc(C(=O)CC(NS(=O)(=O)c2ccc3oc4ccccc4c3c2)C(=O)O)cc1 (stereo not drawn) [Example 6] |  |
| 100 µM | 0.78 µM | 1.3 µM | 82 µM | 5.8 µM |  |  |  |  |  | O=C(O)[C@H](CCc1ccccc1)NS(=O)(=O)c1ccc2sc3ccccc3c2c1 [Example 7, 2-(Dibenzothiophene-2-sulfonylamino)-4phenyl-butyric acid] |  |
| 3.5 µM | 0.0038 µM | 0.013 µM | 1.2 µM | 0.032 µM |  |  |  |  |  | O=C(O)[C@H](CCc1ccccc1)NS(=O)(=O)c1ccc2c(c1)oc1ccccc12 [Example 8] |  |
| 49.5 µM | 0.024 µM | 0.0465 µM | 2.55 µM | 0.33 µM |  |  |  |  |  | O=C(O)[C@H](CCc1ccccc1)NS(=O)(=O)c1ccc2c(c1)Cc1ccccc1-2 [Example 9, (S)-2-(9H-Fluorene-2-sulfonylamino)-4-phenyl-butyric acid] | IC50 [7]: 100 µM |
|  |  |  |  |  | > 100 µM | 0.3 µM | 0.7 µM | 32.4 µM | 3.7 µM | O=C(CCC(NS(=O)(=O)c1ccc2oc3ccccc3c2c1)C(=O)O)Nc1ccc(Cl)cc1 (stereo not drawn) [Example F12, 4-(4-Chloro-phenylcarbamoyl)-2-(dibenzofuran-2-sulfonylamino)-butyric acid] |  |
|  |  |  |  |  | > 100 µM | 9.3 µM | 26.5 µM | > 100 µM | 24.1 µM | O=C(CCC(NS(=O)(=O)c1ccc2oc3ccccc3c2c1)C(=O)O)NCCCCc1ccccc1 (stereo not drawn) [Example F13, 2-(Dibenzofuran-2-sulfonylamino)-4-(4-phenyl-butylcarbamoyl)-butyric acid] |  |
|  |  |  |  |  | > 100 µM | 0.4 µM | 1.4 µM | 57.6 µM | 2.4 µM | Cn1cccc1CCNC(=O)CCC(NS(=O)(=O)c1ccc2oc3ccccc3c2c1)C(=O)O (stereo not drawn) [Example F14, 2-(Dibenzofuran-2-sulfonylamino)-4-[2-(1-methyl-1H-pyrrol-2-yl)-ethylcarbamoyl]-butyric acid] |  |
|  |  |  |  |  | > 100 µM | 0.3 µM | 1.8 µM | 36.9 µM | 0.6 µM | COc1ccccc1CNC(=O)CCC(NS(=O)(=O)c1ccc2oc3ccccc3c2c1)C(=O)O (stereo not drawn) [Example F15, 2-(Dibenzofuran-2-sulfonylamino)-4-(2-methoxy-benzylcarbamoyl)-butyric acid] |  |
|  |  |  |  |  | > 100 µM | 0.4 µM | 1.1 µM | 22.1 µM | 1 µM | O=C(CCC(NS(=O)(=O)c1ccc2oc3ccccc3c2c1)C(=O)O)NCc1cccc2ccccc12 (stereo not drawn) [Example F16] |  |
|  |  |  |  |  |  |  |  |  |  | CNC(=O)[C@H](Cc1c[nH]c2ccccc12)NC(=O)[C@@H](CC(=O)NO)CC(C)C [GM6001] | effect on EAE [10]: suppressed the development or reversed the clinical expression of experimental allergic encephalomyelitis (EAE) in a dose dependent manner |
|  |  |  |  |  |  |  |  |  |  | TIMP-1: TIMP-1; TIMPs are natural endogenous inhibitors of MMPs | formation of collagen fragments [11]: prevented the formation of collagen fragments |

| Compound | IC50 ([1]; Table 1, read-out: IC50 MMP01) | IC50 [2, 12] | IC50 [3, 13] | IC50 ([4]; Table 1, read-out: IC50 MMP07) | IC50 [5] | IC50 [1, 14] | IC50 [2, 15] | IC50 [3, 16] | IC50 [4, 17] | IC50 [9] | further results |
| --- | --- | --- | --- | --- | --- | --- | --- | --- | --- | --- | --- |
| 2-(Dibenzofuran-2-sulfonylamino)-pentanedioic acid 1-tert-butyl Ester [Example 4] | 91 µM | 0.12 µM | 0.46 µM | 3.7 µM | 0.35 µM |  |  |  |  |  |  |
